Source: ChEMBL document CHEMBL2163214, “Design, synthesis, calorimetry, and crystallographic analysis of 2-alkylaminoethyl-1,1-bisphosphonates as inhibitors of Trypanosoma cruzi farnesyl diphosphate synthase” (J Med Chem, 2012)

Test: Binding affinity to Trypanosoma cruzi farnesyl diphosphate synthase at 250 uM at 28 degC by isothermal titration calorimetry

| Structure (SMILES) | Kd [nM] |
| --- | --- |
| CCCCCNCC(P(=O)(O)O)P(=O)(O)O | 1030 |
| CCCNCC(P(=O)(O)O)P(=O)(O)O | 25 |
| CCCCCCNCC(P(=O)(O)O)P(=O)(O)O | 400 |
| CCCCCCCNCC(P(=O)(O)O)P(=O)(O)O | 58.8 |
